Experimental data: PubChem BioAssay (NCI)
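Assay format: 96-well plates, 48-hour exposure. The concentration for full growth arrest is given as TGI.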

system: P388/ADR leukemia; test: NCI tumour cell line growth inhibition, 48 h

SMILES | TGI [µM]
CC(C)NC(=O)OCc1c(COC(=O)NC(C)C)c(-c2ccc(Cl)c(Cl)c2)n2c1CCC2 | > 100
OCC1OC(n2cnc3c2NC=NC[C@H]3O)CC1O (stereo partly drawn) | 448
COC1=C2C[C@@H](C)C[C@@H](OC)[C@@H](O)[C@H](C)/C=C(\C)[C@@H](OC(N)=O)[C@H](OC)/C=C\C=C(/C)C(=O)NC(=CC1=O)C2=O | 1.47
